Results from US20150073033A1, “BIOMARKERS FOR CANCER CHARACTERIZATION AND TREATMENT” (Board of Regents, The University of Texas System, priority 2011, published 2015).

Legend:
Format in all cases: cell-based, human
PKM2 expression = assay: EGF-induced PKM2 upregulation, immunoblotting; conditions: U87/EGFR cells; pretreatment before EGF 100 ng/mL 12 h; AG1478 1 μM, cycloheximide 200 μg/mL, Bis-I 2 μM, Go6976 2 μM, NF-κB activation inhibitor II 7 μM, AKT inhibitor 10 μM, TBB 50 μM, U73122 2 μM
Description: FIG. 56: EGFR activation results in upregulation of PKM2 expression. A-D: Immunoblotting analyses were performed with or without the indicated antibodies. A: The indicated cell lines were treated with EGF (100 ng/mL) for 12 h. B: U87 cells were stably transfected with plasmids expressing EGFR or EGFRvIII. […] D: U87/EGFR cells were pretreated with or without cycloheximide (CHX) (200 μg/mL) for 30 min before EGF (100 ng/mL) treatment for 12 h. […] The relative mRNA levels of PKM2 and PKM1 were normalized to the levels of untreated cells and β-actin mRNA. Data represent the mean±SD of three independent experiments.
FIG. 57: EGF increases PKM2 expression in a PKC- and NF-κB-dependent manner. A-D, H: Immunoblotting analyses were performed with the indicated antibodies. […] ChIP assay was performed with an anti-RelA antibody for immunoprecipitation, followed by PCR with PKM promoter-specific primers. F: An oligonucleotide containing the putative WT or mutated NF-κB binding sequence was labeled using [γ-^32P] ATP and T4 polynucleotide kinase. […] Samples were subjected to 5% polyacrylamide gel electrophoresis, and the dried gel was exposed to x-ray film. […] The relative levels of luciferase activity were normalized to the levels of untreated cells and to the levels of luciferase activity of the Renilla control plasmid. Data represent the mean±standard deviation of three independent experiments.
(§1) FIG. 58: PKCε downstream from PLCγ1, rather than TAK1, activates IKKβ and subsequently increases PKM2 expression. […] B: U87/EGFR cells were treated with TNFα (10 ng/mL) for the indicated time. C: U87/EGFR cells were treated with or without EGF (100 ng/mL) or TNFα (10 ng/mL) for 4 h. […] HIF1α was immunodepleted from the cell lysates by incubation with an anti-HIF1α antibody, which was followed by a ChIP assay with an anti-FLAG antibody for immunoprecipitation of FLAG-RelA and PCR analysis with PKM promoter-specific primers. […] F: 293T cells were transiently transfected with constitutively active (+) or kinase-dead (−) PKC mutants. […] H, I: 293T cells were transiently transfected with the indicated plasmids.

NF-κB = assay: TNFα-induced, NF-κB-dependent IκBα promoter luciferase reporter; conditions: U87/EGFR cells; NF-κB activation inhibitor II 7 μM 30 min before TNFα 10 ng/mL 8 h
Description: FIG. 63: PKC, NF-κB, PI3-K, and CK2 are inhibited by their inhibitors. A, B: U87/EGFR cells were treated with Bis-I (2 μM) (A) or Go6976 (2 μM) (B) for 30 min before 12-O-tetradecanoylphorbol-13-acetate (TPA) ([…]) for 8 h. Immunoblotting analyses were performed with the indicated antibodies. C: U87/EGFR cells transiently expressing a luciferase reporter vector containing the IκBα promoter were pretreated with or without NF-κB activation inhibitor II (7 μM) for 30 min before TNFα (10 ng/mL) for 8 h. The relative levels of luciferase activity were normalized to the levels of untreated cells and to the levels of luciferase activity of the Renilla control plasmid. Data represent the mean±standard deviation of three independent experiments. […] Immunoblotting analyses were performed with the indicated antibodies.
The luciferase reporter vector pGL3-promoter containing either the WT or a mutated PKM promoter fragment or a luciferase reporter vector containing the IκBα promoter was transfected into U87/EGFR cells, RelA+/+, or RelA−/− fibroblasts seeded in 24-well plates at 1.5×10^4 cells/well. Twelve hours after transfection, the medium was replaced with 0.1% serum for another 12-24 h, and EGF (100 ng/mL) was added 12 h before harvesting. […] cell extract were used for measuring luciferase activity. […]

PTBP1 = PTBP1 protein expression upon EGF stimulation; conditions: U251 cells; NF-κB activation inhibitor II 7 μM 30 min before EGF 100 ng/mL 8 h
Description: FIG. 64: EGF increases PKM2 expression in a RelA- and PTBP1-dependent manner. […] Data represent the mean±standard deviation of three independent experiments. […] Immunoblotting analyses were performed with the indicated antibodies. C: RelA deficiency inhibits EGF-increased mRNA levels of PKM2, but not of PKM1. mRNA expression levels of PKM2 and PKM1 in RelA^+/+ and RelA^−/− fibroblasts treated with or without EGF (100 ng/mL) for 8 h were measured by real-time quantitative RT-PCR analysis. β-actin mRNA from the same cDNA library was amplified as a control. The relative mRNA levels of PKM2 (left panel) and PKM1 (right panel) were normalized to the levels of untreated cells and β-actin mRNA. Data represent the mean±SD of three independent experiments. D: PTBP1 depletion blocked EGF-induced PKM2 mRNA expression. […] The relative mRNA levels of PKM2 and PKM1 were normalized to the levels of untreated cells and β-actin mRNA. Data represent the mean±SD of three independent experiments. […] U87/EGFR cells transiently expressing a luciferase reporter vector containing the IκBα promoter were treated with or without TNFα (10 ng/mL) or EGF (100 ng/mL) for 8 h. The relative levels of luciferase activity were normalized to the levels of untreated cells and to the levels of luciferase activity of the Renilla control plasmid. Data represent the mean±standard deviation of three independent experiments.

IKKβ = assay: EGF-induced IKKβ activation, immunoblotting; conditions: U87/EGFR cells; U73122 2 μM 30 min before EGF 100 ng/mL 12 h
Description: as §1

Compound	EGF-induced PKM2 upregulation/expression (PKM2 expression)	TNFα-induced and NF-κB-dependent IκBα promoter activation (NF-κB)	PTBP1 protein expression (PTBP1)	EGF-induced IKKβ activation (IKKβ)
Cc1ccc(NCCCc2ccccc2)c(N)c1 [NF-κB activation inhibitor II]	largely abrogated	successfully blocked	not affected	
COc1ccc2c(c1)CC[C@@H]1[C@@H]2CC[C@]2(C)[C@@H](NCCCCCCN3C(=O)C=CC3=O)CC[C@@H]12 [U73122]	abrogated			abrogated
